From patent US6410561B1, “Amide derivatives and nociceptin antagonists” (Japan Tobacco Inc., priority 1998, dated 2002)
Where a name gives a salt, the structure may show the parent alone. Read-outs that look alike come from different tables or passages of the source. One block for each molecule: values may come before it.

Legend:
[1] = molecular target: T1, μ receptor (Rattus norvegicus, UniProt P33535); assay: μ receptor binding assay ([3H]DAMGO); settings: for Ki: calculated from IC50 and Kd of [3H]DAMGO; for IC50: rat cerebrum membrane, [3H]DAMGO 1 nM
T1 construct: Rat cerebrum membrane standard sample; from tissue; host or cells: rat cerebrum membranes
T1 sequence (P33535 whole entry): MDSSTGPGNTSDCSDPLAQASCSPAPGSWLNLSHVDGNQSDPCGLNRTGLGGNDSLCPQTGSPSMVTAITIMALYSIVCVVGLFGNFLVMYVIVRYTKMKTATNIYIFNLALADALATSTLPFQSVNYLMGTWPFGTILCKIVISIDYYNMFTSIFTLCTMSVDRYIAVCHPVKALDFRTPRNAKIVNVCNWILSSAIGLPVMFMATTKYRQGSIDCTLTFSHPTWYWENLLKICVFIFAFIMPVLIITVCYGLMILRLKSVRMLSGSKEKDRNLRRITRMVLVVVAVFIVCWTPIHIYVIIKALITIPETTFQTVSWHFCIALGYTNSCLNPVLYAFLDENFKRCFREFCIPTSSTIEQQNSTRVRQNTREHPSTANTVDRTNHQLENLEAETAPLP
Method: Rat cerebrum membrane standard sample (final concentration 0.755 mg·protein/ml), [^3H]DAMGO (Try-D-Ala-Gly-NMe-Phe-Gly-ol) [diluted with Tris buffer (50 mM Tris-HCl, 0.1 mM p-APMSF, 2 mg/ml BSA (pH=7.4)) to a final concentration of 1 nM] and test compound (diluted with Tris buffer to a final concentration of 10 nM-10 μM) were mixed, and the mixture was incubated at room temperature for 90 min. The membrane was recovered on a G/F-B filter (same as above) using a cell harvester and the reaction was stopped. After washing 3 times, the filter was dried at 42° C. for 1 hr. A scintillation solution (same as above) was added and the radioactivity (same as above) was assayed.
(§1) The nonspecific binding was the binding in the presence of 10 μM naloxone and the difference between the total binding and nonspecific binding was taken as the specific binding. IC50 was calculated from inhibition of specific binding at each concentration of the compound, and Ki value of the test compound was calculated from this value and Kd value of [^3H]DAMGO.

[2] = test system: allodynia model; assay: Allodynia test (intrathecal nociceptin, tactile stimulation); type: in vivo, Mice; settings: Mus musculus, read-out: Allodynia M.E.D. (minimum effective dose)
Method: Mice (Crj, ICR, 4-week-old, male) were intrathecally administered with nociceptin (50 pg/5 μl) without anesthesia. For 20 min after administration and at 5 min intervals, an area from lateral region to tail of the mice was rubbed with a brush and the response of the mice was observed. The evaluation followed the criteria of 0; no change, 1; run or cry upon tactile stimulation, and 2; cry loud or dash away upon tactile stimulation. The test compound was suspended in a 0.5% MC solution and orally administered 60 min before nociceptin administration. The significant difference of the score of each administration group at 20 min after nociceptin administration from the group administered with solvent was analyzed with Mann-Whitny U-test.

[3] = molecular target: T2, ORL-1 receptor (Homo sapiens, UniProt P41146); assay: ORL1 receptor binding assay ([3H]nociceptin); settings: for Ki: calculated from IC50 and Kd of [3H]nociceptin; for IC50: membrane of human ORL-1 expression cells, [3H]nociceptin 0.5 nM
T2 construct: expressed in transfected cells
T2 sequence (P41146 whole entry): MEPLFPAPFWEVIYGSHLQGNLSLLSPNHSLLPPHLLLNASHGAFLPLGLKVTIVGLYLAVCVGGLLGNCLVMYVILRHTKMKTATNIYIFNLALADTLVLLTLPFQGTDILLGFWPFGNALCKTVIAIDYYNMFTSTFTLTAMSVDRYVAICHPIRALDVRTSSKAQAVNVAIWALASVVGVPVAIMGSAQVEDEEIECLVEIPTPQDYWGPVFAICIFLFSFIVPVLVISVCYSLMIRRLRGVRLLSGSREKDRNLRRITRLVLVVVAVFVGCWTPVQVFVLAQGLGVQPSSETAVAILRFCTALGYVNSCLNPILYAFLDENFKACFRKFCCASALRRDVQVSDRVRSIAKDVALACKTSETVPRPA
Method: ORL1 Receptor Binding Assay
A cell membrane suspension obtained from human ORL-1 expression cells was adjusted with Tris buffer [50 mM Tris, 2 mM EDTA, 0.1 mM (p-Amidinophenyl)methanesulfonyl Fluoride Hydrochloride (p-APMSF), 2 mg/ml BSA] to membrane protein amount of about 25 μg/ml (2.5 μg/well). This was mixed with [^3H]nociceptin (diluted with Tris buffer to a final concentration of 0.5 nM) and test compound (diluted with Tris buffer to a final concentration of 10 nM-10 μM), and the mixture was incubated at room temperature for 60 min. The membrane was recovered on a G/F-B filter (Packard, Unifilter 96GF/B) using a cell harvester and the reaction was stopped. After washing 3 times, the filter was dried at 42° C. for 1 hr. A scintillation solution (Packard, microscint-20) was added and the radioactivity (Packard, Top count A9912V) was assayed.
as §1, with “1” for “10”, “nociceptin” for “naloxone”, “[^3H]nociceptin.” for “[^3H]DAMGO.”

[4] = mice, oral, 60 min before nociceptin 50 pg i.t., score at 20 min

Compound: Cl.Nc1ccnc2ccc(NC(=O)c3ccccc3COc3ccc(Cl)cc3)cc12
melting point: 231 °C

Compound: Cc1cc(N)c2cc(NC(=O)c3ccccc3COc3ccc([N+](=O)[O-])cc3)ccc2n1.Cl [Example 32, N-(4-amino-2-methyl-6-quinolyl)-2-[(4-nitrophenoxy)methyl]benzamide hydrochloride]
Ki [1]: 227 nM
IC50 [1]: 580 nM
melting point: 238 °C
minimal effective dose ([2]; po): > 0.3 mg/kg

Compound: Cc1cc(N)c2cc(NC(=O)c3ccccc3COc3ccccc3Cl)ccc2n1.Cl [Example 27, N-(4-amino-2-methyl-6-quinolyl)-2-[(2-chlorophenoxy)methyl]benzamide hydrochloride]
Ki [1]: 414 nM
IC50 [1]: 1060 nM
melting point: 165 °C
minimal effective dose ([2]; po): 0.3 mg/kg

Compound: Cc1cc(N)c2cc(NC(=O)c3ccccc3OCc3ccccc3)ccc2n1.Cl
melting point: 240 °C

Compound: Cc1cc(N)c2cc(NC(=O)c3ccccc3CN(C(=O)OC(C)(C)C)c3ccc(Cl)cc3)ccc2n1.Cl
melting point: 208 °C

Compound: Cl.Nc1cccc2ccc(NC(=O)c3ccccc3COc3ccccc3)cc12
melting point: 237 °C

Compound: Cc1cc(N)c2cc(NC(=O)c3ccccc3CCc3ccccc3)ccc2n1 [Example 71]
Ki [3]: 89 nM
IC50 [3]: 1770 nM
minimal effective dose [2, 4]: 30 mg/kg

Compound: Cc1cc(N)c2cc(NC(=O)c3ccccc3CN(C)c3ccc(Cl)cc3)ccc2n1 [Example 101]
melting point: 214 °C

Compound: Cc1cc(N)c2cc(NC(=O)c3ccccc3CCCCCCCOc3ccccc3)ccc2n1.Cl [Example 65]
Ki [3]: 64 nM
IC50 [3]: 1160 nM
minimal effective dose [2, 4]: > 3 mg/kg

Compound: CCc1cc(N)c2cc(NC(=O)c3ccccc3COc3ccc(Cl)cc3Cl)ccc2n1 [Example 51]
Ki [3]: 8 nM
IC50 [3]: 170 nM
Ki [1]: 525 nM
IC50 [1]: 1400 nM

Compound: Cc1cc(N)c2cc(NC(=O)c3cccc(CCc4ccccc4)c3)ccc2n1.Cl
melting point: > 300 °C

Compound: Cc1cc(N)c2cc(NC(=O)c3sccc3COc3ccc(Cl)cc3)ccc2n1.Cl
melting point: 219 °C

Compound: Cc1cc(N)c2cc(NC(=O)c3ccccc3CCCCOc3ccccc3)ccc2n1.Cl [Example 63]
Ki [3]: 54 nM
IC50 [3]: 1030 nM
Ki [1]: 545 nM
IC50 [1]: 1420 nM
minimal effective dose [2, 4]: > 3 mg/kg

Compound: CNc1cc(C)nc2ccc(NC(=O)c3ccccc3COc3ccccc3)cc12.Cl
melting point: 284 °C

Compound: CCc1ccc(OCc2ccccc2C(=O)Nc2ccc3nccc(N)c3c2)cc1.Cl
melting point: 219 °C

Compound: Cc1cc(N)c2cc(NC(=O)c3ccccc3CCOc3ccccc3)ccc2n1.Cl [Example 62]
Ki [3]: 125 nM
IC50 [3]: 2360 nM
Ki [1]: 783 nM
IC50 [1]: 2000 nM
minimal effective dose [2, 4]: > 3 mg/kg

Compound: CSc1nc2ccc(NC(=O)c3ccccc3COc3ccccc3)cc2[nH]1.Cl
melting point: 191 °C

Compound: Cc1cc(N)c2cc(NC(=O)[C@@H]3CCCN3CCOc3ccc(Cl)cc3)ccc2n1 [Example 113]
melting point: 216 °C

Compound: Cc1ccc(CCc2ccccc2C(=O)Nc2ccc3nc(C)cc(N)c3c2)cc1.Cl
melting point: > 300 °C

Compound: Cc1cc(N)c2cc(NC(=O)c3ccccc3CCCCCCc3ccccc3)ccc2n1.Cl
melting point: 213 °C

Compound: Cc1cc(N)c2cc(NC(=O)c3ccccc3CNc3ccc(Cl)cc3)ccc2n1 [Example 102]
melting point: 274 °C

Compound: Cc1cc(N)c2cc(NC(=O)c3ccccc3CSc3ccc(Cl)cc3)ccc2n1.Cl
melting point: 216 °C

Compound: Cc1cc(N)c2cc(NC(=O)c3ccccc3COc3ccc4c(c3)CCCC4)ccc2n1.Cl
melting point: 176 °C

Compound: Cc1cc(N)c2cc(NC(=O)[C@H]3CCCN3CCOc3ccc(Cl)cc3)ccc2n1 [Example 115]
melting point: 253 °C

Compound: Cc1cc(N)c2cc(NC(=O)c3ccccc3CCCOc3ccccc3)ccc2n1.Cl [Example 61]
Ki [3]: 63 nM
IC50 [3]: 1220 nM
Ki [1]: 2010 nM
IC50 [1]: 5350 nM
minimal effective dose [2, 4]: 3 mg/kg

Compound: Cc1cc(N)c2cc(NC(=O)[C@@H]3CCCN3CCCOc3ccc(Cl)cc3)ccc2n1 [Example 114]
melting point: 211 °C

Compound: Cc1cc(N)c2cc(NC(=O)c3ccccc3CCCCc3ccccc3)ccc2n1.Cl
melting point: 233 °C

Compound: Cl.Nc1ccc(NC(=O)c2ccccc2COc2ccccc2)cc1
melting point: 241 °C

Compound: Cl.Nc1c2c(nc3ccc(NC(=O)c4ccccc4COc4ccc(Cl)cc4)cc13)CCCC2
melting point: 283 °C

Compound: COc1cc(OC)cc(OCc2ccccc2C(=O)Nc2ccc3nc(C)cc(N)c3c2)c1.Cl [Example 10, N-(4-amino-2-methyl-6-quinolyl)-2-[(3,5-dimethoxyphenoxy)methyl]benzamide hydrochloride]
Ki [3]: 53 nM
IC50 [3]: 1020 nM
Ki [1]: 324 nM
IC50 [1]: 860 nM
minimal effective dose [2, 4]: 3 mg/kg

Compound: Cc1cc(N)c2cc(NC(=O)c3ccccc3C[S+]([O-])c3ccc(Cl)cc3)ccc2n1.Cl (stereo not shown)
melting point: 221 °C

Second part, led by results:

melting point: 269 °C
Compound: Cc1cc(N)c2cc(NC(=O)c3ccccc3COc3ccc4occc4c3)ccc2n1.Cl

melting point: 255 °C
Compound: Cc1cc(N)c2cc(NC(=O)c3ccccc3COc3cccc(F)c3)ccc2n1.Cl

melting point: 224 °C
Compound: COc1cccc(OCc2ccccc2C(=O)Nc2ccc3nc(C)cc(N)c3c2)c1.Cl

melting point: 201 °C
Compound: Cc1ccc(OCc2ccccc2C(=O)Nc2ccc3nc(CO)cc(N)c3c2)cc1.Cl

melting point: 258 °C
Compound: CC(=O)OCc1ccc(OCc2ccccc2C(=O)Nc2ccc3nc(C)cc(N)c3c2)cc1.Cl

melting point: 268 °C
Compound: Cc1cc(N)c2cc(NC(=O)c3ccccc3COc3ccc(-c4ccccc4)cc3)ccc2n1.Cl

melting point: 195 °C
Compound: Cc1cc(N)c2cc(NC(=O)c3ccccc3COc3cccc(C#N)c3)ccc2n1.Cl

melting point: 207 °C
Compound: Cc1cc(N)c2cc(NC(=O)c3ccccc3COc3cccnc3)ccc2n1.Cl

melting point: 270 °C
Compound: COc1ccc(OCc2ccccc2C(=O)Nc2ccc3nc(C)cc(N)c3c2)cc1OC.Cl

Ki [3]: 7 nM
IC50 [3]: 120 nM
melting point: 233 °C
Compound: Cc1cc(N)c2cc(NC(=O)c3ccccc3COc3ccc4c(c3)CCO4)ccc2n1.Cl [Example 93]
minimal effective dose [2, 4]: > 0.3 mg/kg

melting point: 244 °C
Compound: COCc1ccccc1C(=O)Nc1ccc2nc(C)cc(N)c2c1.Cl

melting point: 233 °C
Compound: Cc1cc(N)c2cc(NC(=O)c3ccccc3COc3ccc(N(C)C)cc3)ccc2n1 (as salt: hydrochloride)

Ki [3]: 5 nM
IC50 [3]: 90 nM
Ki [1]: 1020 nM
IC50 [1]: 2670 nM
Compound: Cc1cc(N)c2cc(NC(=O)c3ccccc3COc3ccc(I)cc3)ccc2n1 [Example 38, N-(4-amino-2-methyl-6-quinolyl)-2-[(4-iodophenoxy)methyl]benzamide]
minimal effective dose [2, 4]: > 0.3 mg/kg

melting point: 237 °C
Compound: Cc1cc(N)c2cc(NC(=O)c3ccccc3COc3ccc(N)cc3)ccc2n1 (as salt: hydrochloride) [Example 23, N-(4-amino-2-methyl-6-quinolyl)-2-[(4-aminophenoxy)methyl]benzamide dihydrochloride]

melting point: 262 °C
Compound: COC(=O)c1ccc(OCc2ccccc2C(=O)Nc2ccc3nc(C)cc(N)c3c2)cc1.Cl

Ki [3]: 8 nM
IC50 [3]: 150 nM
Ki [1]: 464 nM
IC50 [1]: 1180 nM
Compound: Cc1cc(N)c2cc(NC(=O)c3ccccc3COc3ccc(F)cc3)ccc2n1.Cl [Example 25, N-(4-amino-2-methyl-6-quinolyl)-2-[(4-fluorophenoxy)methyl]benzamide hydrochloride]
minimal effective dose [2, 4]: > 0.3 mg/kg

melting point: 256 °C
Compound: Cc1cc(N)c2cc(NC(=O)c3ccccc3COc3ccc(C(C)C)cc3)ccc2n1.Cl

melting point: 225 °C
Compound: Cc1cc(N)c2cc(NC(=O)c3ccccc3COc3ccc(C(=O)O)cc3)ccc2n1.Cl

melting point: 253 °C
Compound: Cc1cc(N)c2cc(NC(=O)c3ccccc3COc3cccc(C(F)(F)F)c3)ccc2n1.Cl

melting point: 273 °C
Compound: Cc1cc(N)c2cc(NC(=O)c3ccccc3COc3ccc(CO)cc3)ccc2n1.Cl
